Experimental data from patent US9320760B2, “Compositions and methods of use of compounds to increase cancer patient survival time” (BioNumerik Pharmaceuticals, Inc., priority 2008, dated 2016).
Like-named read-outs stand apart in the source and are kept apart here.

How the values were obtained:
Thioredoxin Reductase = biological target: T1, Thioredoxin Reductase (Bos taurus, UniProt O62768); test: NADPH oxidation at 340 nm, thioredoxin reductase only; format: biochemical, bovine; details: Disulfide 0.5 mM; minimum of triplicate assays
T1 sequence (O62768 1-499): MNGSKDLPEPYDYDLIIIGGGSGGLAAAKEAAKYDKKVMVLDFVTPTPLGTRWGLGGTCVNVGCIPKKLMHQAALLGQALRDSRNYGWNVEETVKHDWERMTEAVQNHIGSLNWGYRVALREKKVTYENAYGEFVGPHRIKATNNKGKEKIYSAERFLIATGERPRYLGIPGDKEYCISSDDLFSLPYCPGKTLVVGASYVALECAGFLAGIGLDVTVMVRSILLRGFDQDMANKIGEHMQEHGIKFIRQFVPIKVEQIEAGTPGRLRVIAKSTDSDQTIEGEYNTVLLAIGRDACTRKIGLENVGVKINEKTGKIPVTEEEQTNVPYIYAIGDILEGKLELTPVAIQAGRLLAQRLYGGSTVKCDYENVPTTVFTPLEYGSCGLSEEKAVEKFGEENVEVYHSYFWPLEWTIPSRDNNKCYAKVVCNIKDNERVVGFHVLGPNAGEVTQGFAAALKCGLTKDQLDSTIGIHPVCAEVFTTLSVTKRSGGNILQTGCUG
Experimental: (§1) Biochemistry 21:6628-6633 (1982).
(§2) Data was then collected and plotted in Microsoft Excel. Error calculations, and graphical representations were performed in Microsoft Excel and Kaleidograph (ver. 3.5). Nonlinear data was graphically rendered using Kaleidograph. ANOVA and other statistical analyses were performed using SAS (ver. 8.2). Unless otherwise noted, significance level was set at 0.05, and error bars represent actual experimental standard deviation.
(§3) It should be noted that for the purposes of FIG. 17 only, thioredoxin is labeled TXR and thioredoxin reductase is labeled TRR.

[1] = biological target: T2, Thioredoxin Reductase + Thioredoxin (Bos taurus, UniProt O97680); test: NADPH oxidation at 340 nm, coupled thioredoxin (TX)/thioredoxin reductase (TXR)/NADPH system; format: biochemical, bovine; details: Disulfide 0.5 mM; minimum of triplicate assays
T2 sequence (O97680 1-105): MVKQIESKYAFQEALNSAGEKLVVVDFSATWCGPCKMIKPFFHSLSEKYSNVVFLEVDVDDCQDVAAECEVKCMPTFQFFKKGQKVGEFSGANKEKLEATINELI
Experimental: as §1, §2, §3
Table 4, below, illustrates that various Formula (I) compounds (i.e., disulfide-containing compounds) of the present invention can serve as alternate substrate inhibitors for the coupled thioredoxin (TX)/thioredoxin reductase (TXR)/NADPH system as measured by the oxidation of NADPH. In Table 4, the Formula (I) compounds were utilized at a concentration of 0.5 mM.

[2] = biological target: T3, glutathione reductase (GR) (Homo sapiens, UniProt P00390); test: NADPH oxidation, glutathione reductase (GR) alone; format: biochemical; details: for NADPH Oxidation, GR: Disulfide 0.5 mM, n = 6
T3 sequence (P00390 44-522): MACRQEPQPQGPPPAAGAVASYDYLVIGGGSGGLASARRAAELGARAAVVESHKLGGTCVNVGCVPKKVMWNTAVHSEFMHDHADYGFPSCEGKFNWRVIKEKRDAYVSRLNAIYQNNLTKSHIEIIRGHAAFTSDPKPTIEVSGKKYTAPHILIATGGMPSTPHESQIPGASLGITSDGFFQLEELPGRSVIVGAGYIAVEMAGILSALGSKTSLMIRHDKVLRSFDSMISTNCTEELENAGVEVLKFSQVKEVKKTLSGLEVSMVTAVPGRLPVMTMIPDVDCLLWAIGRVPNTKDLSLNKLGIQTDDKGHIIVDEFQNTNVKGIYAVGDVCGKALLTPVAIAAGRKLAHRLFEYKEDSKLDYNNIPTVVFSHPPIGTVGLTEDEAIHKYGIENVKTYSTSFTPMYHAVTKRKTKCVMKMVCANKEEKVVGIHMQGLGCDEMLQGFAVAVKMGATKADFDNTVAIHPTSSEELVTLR
Experimental: (§4) The Formula (I) compound was utilized at a concentration of 0.5 mM.

GR + GSH = biological target: T4, GR + GSH (Homo sapiens, UniProt P00390); test: NADPH oxidation, GR + GSH; format: biochemical; details: Disulfide 0.5 mM; n = 6
T4 sequence (P00390 44-522): T3 sequence (P00390 44-522)
Experimental: as §4

[3] = biological target: T5, GR + GRX + GSH (coupled glutaredoxin/glutathione/glutathione reductase system) (Homo sapiens, UniProt P35754); test: NADPH oxidation, coupled GRX/GSH/GR system; format: biochemical; details: Disulfide 0.5 mM; n = 6
T5 sequence (P35754 1-106): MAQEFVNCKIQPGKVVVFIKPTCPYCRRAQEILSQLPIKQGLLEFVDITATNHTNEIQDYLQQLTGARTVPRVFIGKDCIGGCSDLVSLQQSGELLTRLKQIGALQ
Experimental: as §4

[4] = system: mammalian thioredoxin reductase (TXR); details: cited from earlier work
[5] = biological target: T3, glutathione reductase (GR); details: cited from earlier work
[6] = system: cellular ribonucleotide reductase in human cancer cells; details: literature; cited from earlier work
whole cells = test: whole cell mediated disulfide reduction (α-lipoic acid, hydroxyethyldisulfide); format: cell-based; details: mesna in combination with cisplatin
[7] = system: non-small cell lung carcinoma (NSCLC) cell lines; test: cytotoxicity study in combination with chemotherapeutic agents, NSCLC cell lines; format: cell-based, human
[8] = system: ovarian cancer cell lines; test: cytotoxicity study in combination with oxaliplatin, ovarian cancer cell lines; format: cell-based, human; details: mesna 100 μM in combination with oxaliplatin vs oxaliplatin alone controls
brain cancer cells = test: cytotoxicity study in combination with oxaliplatin, brain cancer cells; format: cell-based, human; details: oxaliplatin and mesna, observable but not statistically significant
[9] = literature studies, result in words

For `NC(CCC(=O)NC(CSSCCS(=O)(=O)O)C(=O)O)C(=O)O` (stereo not shown) [BNP7774], the “NADPH Oxidation, Thioredoxin Reductase only” value (Thioredoxin Reductase) was 0.3 ± 0.02 nmol/min/mL, the “NADPH Oxidation, Thioredoxin Reductase + Thioredoxin” value [1] was 9.6 ± 0.2 nmol/min/mL and the “NADPH Oxidation, GR” value [2] was 0.04 ± 0.12 nmol/min/mL. The “NADPH Oxidation, GR + GSH” value (GR + GSH) was 2.4 ± 0.7 nmol/min/mL and the “NADPH Oxidation, GR + GRX + GSH” value [3] was 37.0 ± 2.1 nmol/min/mL.

In the case of `NC(CCSSCCS(=O)(=O)O)C(=O)O` (stereo not shown) [BNP7768], the “NADPH Oxidation, Thioredoxin Reductase only” value (Thioredoxin Reductase) is reported as 0.0 ± 0.03 nmol/min/mL, the “NADPH Oxidation, Thioredoxin Reductase + Thioredoxin” value [1] is reported as 8.6 ± 0.06 nmol/min/mL and the “NADPH Oxidation, GR” value [2] is reported as 0.16 ± 0.96 nmol/min/mL. For the same compound, the “NADPH Oxidation, GR + GSH” value (GR + GSH) was 0.88 ± 0.2 nmol/min/mL and the “NADPH Oxidation, GR + GRX + GSH” value [3] was 10.7 ± 0.7 nmol/min/mL.

In the case of `N[C@@H](CSSCCS(=O)(=O)O)C(=O)NCC(=O)O` [BNP7776], the “NADPH Oxidation, Thioredoxin Reductase only” value (Thioredoxin Reductase) is reported as 0.2 ± .04 nmol/min/mL, the “NADPH Oxidation, Thioredoxin Reductase + Thioredoxin” value [1] is reported as 15.8 ± 0.3 nmol/min/mL and the “NADPH Oxidation, GR” value [2] is reported as 0.0 ± 0.7 nmol/min/mL. For the same compound, the “NADPH Oxidation, GR + GSH” value (GR + GSH) was 4.1 ± 1.0 nmol/min/mL and the “NADPH Oxidation, GR + GRX + GSH” value [3] was 22.0 ± 0.5 nmol/min/mL.

In the case of `N.N.O=C([O-])C1(C(=O)[O-])CCC1.[Pt+2]` [carboplatin], the “inhibition of TXR” value [4, 9] is given as “could not inhibit” and the “inhibition of GR” value [5, 9] is given as “could not inhibit”.

For `O=NN(CCCl)C(=O)NCCCl` [carmustine], the “inhibition of TXR” value [4, 9] is given as “can inhibit” and the “inhibition of GR” value [5, 9] is given as “can inhibit”.

With `NC(CSSCCS(=O)(=O)O)C(=O)O` (stereo not shown) [BNP7766] the “NADPH Oxidation, Thioredoxin Reductase only” value (Thioredoxin Reductase) was 0.2 ± 0.03 nmol/min/mL, the “NADPH Oxidation, Thioredoxin Reductase + Thioredoxin” value [1] was 14.4 ± 0.2 nmol/min/mL and the “NADPH Oxidation, GR” value [2] was 0.0 ± 0.01 nmol/min/mL. For the same compound, the “NADPH Oxidation, GR + GSH” value (GR + GSH) was 4.1 ± 1.3 nmol/min/mL and the “NADPH Oxidation, GR + GRX + GSH” value [3] was 28.3 ± 2.0 nmol/min/mL.

In the case of `N.N.[Cl][Pt+2][Cl]` [transplatin], the “inhibition of TXR” value [4] is listed as “irreversibly inhibited” and the “inhibition of GR” value [5] is listed as “not GR”.

For `CCOC(=O)NC1=C(N2CC2)C(=O)C(NC(=O)OCC)=C(N2CC2)C1=O` [Diaziquone], the “inhibition of the TR/TXR system resulting in inhibition of cellular ribonucleotide reductase activity” value [6] is listed as “concentration-dependent inhibition”.

For `CC1=C(/C=C/C(C)=C/C=C/C(C)=C\C(=O)O)C(C)(C)CCC1` [13-cis-retinoic acid], the “inhibition of TXR” value [4, 9] is given as “irreversible inhibition”.

For `O=C(O)C(=O)O.[NH-][C@@H]1CCCC[C@H]1[NH-].[Pt+2]` [oxaliplatin], the “inhibition of TXR” value [4] is given as “irreversibly inhibited” and the “inhibition of GR” value [5] is given as “not GR”.

For `COc1cccc2c1C(=O)c1c(O)c3c(c(O)c1C2=O)C[C@@](O)(C(C)=O)C[C@@H]3O[C@H]1C[C@H](N)[C@H](O)[C@H](C)O1` [daunorubicin], the “inhibition of TXR” value [4] is listed as “not inhibitors”.

For `CS(=O)(=O)OCCCCOS(C)(=O)=O` [busulfan], the “inhibition of TXR” value [4, 9] is given as “irreversibly inhibited” and the “inhibition of GR” value [5, 9] is given as “not GR”.

For `N[C@@H](CCC(=O)N[C@@H](CSSCCS(=O)(=O)O)C(=O)NCC(=O)O)C(=O)O` [BNP7772], the “NADPH Oxidation, Thioredoxin Reductase only” value (Thioredoxin Reductase) was 0.3 ± 0.02 nmol/min/mL, the “NADPH Oxidation, Thioredoxin Reductase + Thioredoxin” value [1] was 14.1 ± 0.1 nmol/min/mL and the “NADPH Oxidation, GR” value [2] was 8.0 ± 0.6 nmol/min/mL. The “substrate / alternative substrate inhibitor for glutathione reductase” value ([2]; result in words) was “functions as an alternative substrate inhibitor”, the “NADPH Oxidation, GR + GSH” value (GR + GSH) was 11.3 ± 0.8 nmol/min/mL and the “NADPH Oxidation, GR + GRX + GSH” value [3] was 71.0 ± 7.9 nmol/min/mL.

For `N[C@@H](Cc1ccc(N(CCCl)CCCl)cc1)C(=O)O` [melphalan], the “inhibition of TXR” value [4, 9] is listed as “irreversibly inhibited” and the “inhibition of GR” value [5, 9] is listed as “not GR”.

For `COc1cccc2c1C(=O)c1c(O)c3c(c(O)c1C2=O)C[C@@](O)(C(=O)CO)C[C@@H]3O[C@H]1C[C@H](N)[C@H](O)[C@H](C)O1` [doxorubicin], the “inhibition of TXR” value [4, 9] is listed as “not inhibitors” and the “inhibition of the TR/TXR system resulting in inhibition of cellular ribonucleotide reductase activity” value [6] is listed as “concentration-dependent inhibition”.

In the case of `N.N.[Cl][Pt][Cl]` [cisplatin, cis-diamminedichloroplatinum], the “inhibition of TXR” value [4, 9] is given as “irreversibly inhibited” and the “inhibition of GR” value [5, 9] is given as “not GR”.

For `O=P1(N(CCCl)CCCl)NCCCO1` (stereo not shown) [cyclophosphamide], the “inhibition of TXR” value [4, 9] is given as “irreversibly inhibited” and the “inhibition of GR” value [5, 9] is given as “not GR”.

For `O=C(O)CCCc1ccc(N(CCCl)CCCl)cc1` [chlorambucil], the “inhibition of TXR” value [4, 9] is given as “irreversibly inhibited” and the “inhibition of GR” value [5, 9] is given as “not GR”.

For `O=S(=O)([O-])CCS.[Na+]` [mesna, 2-mercapto ethane sulfonate sodium], the “reduction of α-lipoic acid (TX/TXR substrate) or hydroxyethyldisulfide (GRX substrate) by whole cells” value (whole cells) was “enhanced”, the “cytotoxic effect of oxaliplatin” value ([7]; mesna 100 μM in combination with oxaliplatin vs oxaliplatin alone controls) was “markedly enhanced” and the “cytotoxic effect of paclitaxel” value ([7]; mesna 100 μM in combination with paclitaxel vs paclitaxel alone controls) was “enhanced”. For the same compound, the “cytotoxic effect of oxaliplatin” value [8] was “markedly enhanced” and the oxaliplatin cytotoxicity (brain cancer cells) was “lesser increase”.

For `O=P1(NCCCl)OCCCN1CCCl` (stereo not shown) [ifosfamide], the “inhibition of TXR” value [4, 9] is listed as “inhibited”.
